# Measurements as given in patent publication US20190100534A1, “Cephem Compounds with Latent Reactive Groups” (Gladius Pharmaceuticals, Inc., priority 2017, published 2019).
# Assays:
# Assay type in all cases: cell-based
# [1] = tested on: Isogenic E. coli J58 strain carrying VIM-2; assay: MIC determination, isogenic E. coli strains; conditions: for MIC: Escherichia coli, 18 h, read-out: Mimimum Inhibitory Concentrations, VIM-2; for MICs for an E. coli strain carrying the gene for carbapenemase VIM-1, in words: review of Tables 4-1 and 4-2
# Procedure, shortened: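 Broth microdilution in cation-adjusted Mueller-Hinton with 20 μM apo-transferrin, compound serially halved from 64 μg/mL, read by eye after 18 h at 37 °C as lowest clear well. Inoculum: VIM-2-expressing E. coli J53 (pBC-SK(+) plasmid), adjusted to 0.5 McFarland.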
# [2] = tested on: Isogenic E. coli J58 strain carrying NDM-1; assay: MIC determination, isogenic E. coli strains; conditions: Escherichia coli, 18 h, read-out: Mimimum Inhibitory Concentrations, NDM-1
# Procedure, shortened: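 Broth microdilution was run in cation-adjusted Mueller-Hinton broth supplemented with 20 μM apo-transferrin, using a 64 μg/mL top concentration diluted twofold. The inoculum was NDM-1-expressing E. coli J53 (pBC-SK(+) plasmid) at 0.5 McFarland. After overnight incubation (18 h, 37° C), the lowest compound concentration preventing visible growth was recorded as the MIC.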
# [3] = tested on: Pseudomonas aeruginosa PA-RR-(G8062859); assay: MIC determination; conditions: Pseudomonas aeruginosa; PA-RR-(G8062859); CAMH broth, 20 μM Apo-Transferrin, 37° C., 18 hours; read-out: Minimum Inhibitory Concentrations, PA-RR-(G8062859)
# Experimental: (§1) Sterile technique was used throughout these experiments. Suspensions of organisms were removed from storage (−80° C.) and partially thawed. Partially thawed organisms (1 μL) were inoculated into 3 mL sterile LB Broth in a sterile culture tube and capped, then cultured at 37° C. with shaking for 4-5 hours until the optical density at 600 nm (OD600) was greater than 0.1 on a single beam spectrophotometer.
# (§2) The concentration of organisms was adjusted to 0.08-0.1 OD600 (0.5 McFarland units) by dilution with sterile cation-adjusted Meuller-Hinton (CAMH) broth. The suspensions were used within 30 minutes of preparation.
# (§3) A stock solution was made of each test compound by measuring 6.4 mg of the compound on an analytical balance and dissolving it in DMSO (1 mL) to get a transparent solution. The solutions were stored at −20° C. and thawed prior to use.
# (§4) Sterile CAMH broth (200 μL) containing 20 μM Apo-Transferrin was pipetted into the first row of 8 columns of a sterile, round-bottomed, transparent, 96-well microplate using an 8-channel pipette equipped with sterile tips. One hundred μL was pipetted into the wells of the remaining 11 rows.
# (§5) With an 8-channel pipette equipped with sterile tips, 100 μL of the first row solution was transferred to the second row and mixed. The process was repeated for the second to third rows and continued through row 11. One hundred μL from row 11 was removed and discarded so that all 12 rows contained 100 μL. Row 12 contained no compound and rows 1-11 contained 64, 32, 16, 8, 4, 2, 1, 0.5, 0.25, 0.125, […] of a given compound.
# (§6) Inoculant suspensions (0.5 μL) were added to the 12 wells of each column. The plates were then covered and incubated at 37° C. overnight for 18 hours.
# (§7) For each organism the MIC was determined by identifying the transparent well with the lowest test compound concentration.
# [4] = tested on: Pseudomonas aeruginosa PA (URMC-2); assay: MIC determination; conditions: Pseudomonas aeruginosa; PA (URMC-2); CAMH broth, 20 μM Apo-Transferrin, 37° C., 18 hours; read-out: Minimum Inhibitory Concentrations, PA (URMC-2)
# Experimental: as §1, §2, §3, §4, §5, §6, §7
# [5] = tested on: Pseudomonas aeruginosa PA (URMC-3); assay: MIC determination; conditions: Pseudomonas aeruginosa; PA (URMC-3); CAMH broth, 20 μM Apo-Transferrin, 37° C., 18 hours; read-out: Minimum Inhibitory Concentrations, PA (URMC-3)
# Experimental: as §1, §2, §3, §4, §5, §6, §7
# [6] = tested on: Pseudomonas aeruginosa PA (RR-1); assay: MIC determination; conditions: Pseudomonas aeruginosa; PA (RR-1); CAMH broth, 20 μM Apo-Transferrin, 37° C., 18 hours; read-out: Minimum Inhibitory Concentrations, PA (RR-1)
# Experimental: as §1, §2, §3, §4, §5, §6, §7
# [7] = tested on: Pseudomonas aeruginosa PA-RR-(980151052); assay: MIC determination; conditions: Pseudomonas aeruginosa; PA-RR-(980151052); CAMH broth, 20 μM Apo-Transferrin, 37° C., 18 hours; read-out: Minimum Inhibitory Concentrations, PA-RR-(980151052)
# Experimental: as §1, §2, §3, §4, §5, §6, §7
# [8] = tested on: Pseudomonas aeruginosa PA-RR-(G7294437); assay: MIC determination; conditions: Pseudomonas aeruginosa; PA-RR-(G7294437); CAMH broth, 20 μM Apo-Transferrin, 37° C., 18 hours; read-out: Minimum Inhibitory Concentrations, PA-RR-(G7294437)
# Experimental: as §1, §2, §3, §4, §5, §6, §7
# [9] = tested on: Pseudomonas aeruginosa PA (RR-2); assay: MIC determination; conditions: Pseudomonas aeruginosa; PA (RR-2); CAMH broth, 20 μM Apo-Transferrin, 37° C., 18 hours; read-out: Minimum Inhibitory Concentrations, PA (RR-2)
# Experimental: as §1, §2, §3, §4, §5, §6, §7
# [10] = tested on: Pseudomonas aeruginosa (PA); assay: MIC determination; conditions: Pseudomonas aeruginosa; PA; CAMH broth, 20 μM Apo-Transferrin, 37° C., 18 hours; read-out: Minimum Inhibitory Concentrations, PA
# Experimental: as §1, §2, §3, §4, §5, §6, §7
# [11] = tested on: Pseudomonas aeruginosa PA-RR-(G7304100); assay: MIC determination; conditions: Pseudomonas aeruginosa; PA-RR-(G7304100); CAMH broth, 20 μM Apo-Transferrin, 37° C., 18 hours; read-out: Minimum Inhibitory Concentrations, PA-RR-(G7304100)
# Experimental: as §1, §2, §3, §4, §5, §6, §7
# [12] = tested on: Pseudomonas aeruginosa PA-RR-(purple Fre D); assay: MIC determination; conditions: Pseudomonas aeruginosa, CAMH broth, 20 μM Apo-Transferrin, 37° C., 18 hours, read-out: Minimum Inhibitory Concentrations, PA-RR-(purple Fre D)
# Experimental: as §1, §2, §3, §4, §5, §6, §7
# [13] = tested on: Pseudomonas aeruginosa PA-RR-(G7305586); assay: MIC determination; conditions: Pseudomonas aeruginosa; PA-RR-(G7305586); CAMH broth, 20 μM Apo-Transferrin, 37° C., 18 hours; read-out: Minimum Inhibitory Concentrations, PA-RR-(G7305586)
# Experimental: as §1, §2, §3, §4, §5, §6, §7
# [14] = tested on: Pseudomonas aeruginosa PA-RR-(98023895); assay: MIC determination; conditions: Pseudomonas aeruginosa; PA-RR-(98023895); CAMH broth, 20 μM Apo-Transferrin, 37° C., 18 hours; read-out: Minimum Inhibitory Concentrations, PA-RR-(98023895)
# Experimental: as §1, §2, §3, §4, §5, §6, §7
# [15] = tested on: Isogenic E. coli J58 strain carrying KPC-3; assay: MIC determination, isogenic E. coli strains; conditions: Escherichia coli, 18 h, read-out: Mimimum Inhibitory Concentrations, KPC-3
# Procedure, shortened: (§8)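 Strain: E. coli J53 electroporated with a pBC-SK(+) plasmid encoding the KPC enzyme, selected on ampicillin. Twofold dilutions ([…]) were made in CAMH broth containing 20 μM apo-transferrin and inoculated at 0.5 McFarland. After overnight (18 h) growth at 37 °C, MIC was read as the lowest concentration with no visible growth.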
# [16] = tested on: Isogenic E. coli J58 strain carrying KPC-2; assay: MIC determination, isogenic E. coli strains; conditions: Escherichia coli, 18 h, read-out: Mimimum Inhibitory Concentrations, KPC-2
# Procedure, shortened: as §8
# [17] = tested on: Isogenic E. coli J58 strain carrying SHV-1; assay: MIC determination, isogenic E. coli strains; conditions: Escherichia coli, 18 h, read-out: Mimimum Inhibitory Concentrations, SHV-1
# Procedure, shortened: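 MIC is the lowest compound concentration leaving a transparent well after overnight (18 h) incubation at 37 °C. The test strain was E. coli J53 expressing plasmid-borne SHV-1 beta-lactamase from pBC-SK(+), adjusted to 0.5 McFarland. Compounds were twofold serially diluted, starting at 64 μg/mL, in CAMH broth supplemented with 20 μM apo-transferrin.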
Structure (SMILES),MIC [1],"MICs for an E. coli strain carrying the gene for carbapenemase VIM-1, in words [1]",MIC [2],MIC [3],MIC [4],MIC [5],MIC [6],MIC [7],MIC [8],MIC [9],MIC [10],MIC [11],MIC [12],MIC [13],MIC [14],MIC [15],MIC [16],MIC [17]
"CC(C)(O/N=C(\C(=O)N[C@@H]1C(=O)N2C(C(=O)O)=C(C=Cc3ccc(C[N+]4(C)Cc5cc(O)c(O)c(Cl)c5C4)cc3)CS[C@H]12)c1csc(N)n1)C(=O)O (mixture of isomers) [Compound 432, 2-(4-((E/Z)-2-((6R,7R)-7-((Z)-2-(2-aminothiazol-4-yl)-2-(((2-carboxypropan-2-yl)oxy)imino)acetamido)-2-carboxy-8-oxo-5-thia-1-azabicyclo[4.2.0]oct-2-en-3-yl)vinyl)benzyl)-4-chloro-5,6-dihydroxy-2-methylisoindolin-2-ium]",≤ 0.06 µg/mL,low microgram/mL MICs,> 64 µg/mL,0.5 µg/mL,0.5 µg/mL,1 µg/mL,1 µg/mL,0.25 µg/mL,≤ 0.06 µg/mL,0.13 µg/mL,0.25 µg/mL,≤ 0.06 µg/mL,1 µg/mL,1 µg/mL,4 µg/mL,–,–,–
"C#CC[N+]1(Cc2ccc(C=CC3=C(C(=O)O)N4C(=O)[C@@H](NC(=O)/C(=N\OC(C)(C)C(=O)O)c5csc(N)n5)[C@H]4SC3)cc2)CCc2cc(O)c(O)cc2C1 (mixture of isomers) [Compound 446, 2-(4-((E/Z)-2-((6R,7R)-7-((Z)-2-(2-aminothiazol-4-yl)-2-(((2-carboxypropan-2-yl)oxy)imino)acetamido)-2-carboxy-8-oxo-5-thia-1-azabicyclo[4.2.0]oct-2-en-3-yl)vinyl)benzyl)-6,7-dihydroxy-2-(prop-2-yn-1-yl)-1,2,3,4-tetrahydroisoquinolin-2-ium]",0.25 µg/mL,–,> 64 µg/mL,–,–,–,–,–,–,–,–,–,–,–,–,1 µg/mL,2 µg/mL,–
"CC(C)(O/N=C(\C(=O)N[C@@H]1C(=O)N2C(C(=O)O)=C(C=Cc3ccc(C[n+]4ccc(-c5ccc(O)c(O)c5)cc4)cc3)CS[C@H]12)c1csc(N)n1)C(=O)O (mixture of isomers) [Compound 412, 1-(4-((E/Z)-2-((6R,7R)-7-((Z)-2-(2-aminothiazol-4-yl)-2-(((2-carboxypropan-2-yl)oxy)imino)acetamido)-2-carboxy-8-oxo-5-thia-1-azabicyclo[4.2.0]oct-2-en-3-yl)vinyl)benzyl)-4-(3,4-dihydroxyphenyl)pyridin-1-ium]",0.5 µg/mL,–,> 64 µg/mL,1 µg/mL,2 µg/mL,≤ 0.06 µg/mL,4 µg/mL,4 µg/mL,1 µg/mL,2 µg/mL,2 µg/mL,≤ 0.06 µg/mL,2 µg/mL,16 µg/mL,4 µg/mL,–,–,–
"CC(C)(O/N=C(\C(=O)N[C@@H]1C(=O)N2C(C(=O)O)=C(C=Cc3ccc(C[N+]4(C)CCc5ccc(O)c(O)c5C4)cc3)CS[C@H]12)c1csc(N)n1)C(=O)O (mixture of isomers) [Compound 442, 2-(4-((E/Z)-2-((6R,7R)-7-((Z)-2-(2-aminothiazol-4-yl)-2-(((2-carboxypropan-2-yl)oxy)imino)acetamido)-2-carboxy-8-oxo-5-thia-1-azabicyclo[4.2.0]oct-2-en-3 yl)vinyl)benzyl)-7,8-dihydroxy-2-methyl-1,2,3,4-tetrahydroisoquinolin-2-ium]",–,–,> 64 µg/mL,0.25 µg/mL,0.25 µg/mL,0.5 µg/mL,0.5 µg/mL,2 µg/mL,≤ 0.06 µg/mL,≤ 0.06 µg/mL,0.13 µg/mL,≤ 0.06 µg/mL,1 µg/mL,2 µg/mL,8 µg/mL,1 µg/mL,2 µg/mL,0.5 µg/mL
"CC(C)(O/N=C(\C(=O)N[C@@H]1C(=O)N2C(C(=O)O)=C(C=Cc3ccc(C[N+]4(C)Cc5c(Cl)c(O)c(O)c(Cl)c5C4)cc3)CS[C@H]12)c1csc(N)n1)C(=O)O (mixture of isomers) [Compound 431, 2-(4-((E/Z)-2-((6R,7R)-7-((Z)-2-(2-aminothiazol-4-yl)-2-(((2-carboxypropan-2-yl)oxy)imino)acetamido)-2-carboxy-8-oxo-5-thia-1-azabicyclo[4.2.0]oct-2-en-3-yl)vinyl)benzyl)-4,7-dichloro-5,6-dihydroxy-2-methylisoindolin-2-ium]",≤ 0.06 µg/mL,low microgram/mL MICs,> 64 µg/mL,0.5 µg/mL,≤ 0.06 µg/mL,1 µg/mL,0.13 µg/mL,0.25 µg/mL,≤ 0.06 µg/mL,≤ 0.06 µg/mL,0.25 µg/mL,≤ 0.06 µg/mL,0.5 µg/mL,0.5 µg/mL,4 µg/mL,–,–,0.13 µg/mL
